Measured values reported in paper PMC5341770 (Nature microbiology, 2017).

Biological target: T1, WarA (PA4379) (Pseudomonas aeruginosa, UniProt Q9HW23)
T1 sequence (Q9HW23 1-227): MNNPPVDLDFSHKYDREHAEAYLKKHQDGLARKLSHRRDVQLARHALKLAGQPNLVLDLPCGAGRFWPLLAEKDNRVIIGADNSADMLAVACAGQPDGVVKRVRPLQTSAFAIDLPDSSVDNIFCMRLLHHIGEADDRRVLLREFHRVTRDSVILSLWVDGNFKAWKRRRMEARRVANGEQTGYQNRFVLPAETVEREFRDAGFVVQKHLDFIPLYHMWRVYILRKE
Conditions: methyl acceptor: LPS from a warA deletion mutant

With `C[S+](CC[C@H](N)C(=O)O)C[C@H]1O[C@@H](n2cnc3c(N)ncnc32)[C@H](O)[C@@H]1O` (stereo partly drawn) [S-adenosyl-L-methionine] the “fluorescent methyltransferase activity kit” value was “using S-adenosyl-L-methionine as the methyl group donor and measuring activity in relative fluorescent units”.
